Experimental data reported in patent US20180064738A1, “METHOD OF TREATING INFECTIONS USING SILOXANE DERIVATIVES” (priority 2014, published 2018).

Key:
[1] = system: shaved skin of mice; assay: Topical irritation and DMBA skin tumor study in mice; details: Group II
Procedure: K-21 was dissolved in acetone to enhance its ability to wet the shaved skin on the backs of experimental mice. Mice in the positive control group were treated with a topical chemical carcinogenic agent, dimethybena(α)anthracene (DMBA), dissolved in acetone.
Thirty adult C57/BL6 mice were randomly divided into three groups of ten animals each to evaluate the topical irritation and potential anti-inflammatory properties of K-21. The hair on the back of all mice were shaved off with electric clippers.
Group 1 animals received topical application of K-21 (100 μg/100 μL) in acetone twice a week for two weeks (days 3, 6, 9, and 12) over the shaved area. These animals received no other treatment. Group II mice received a topical single dose of DMBA (100 μg/100 μL) in acetone over the shaved skin on the animals back on day 7. Group III animals received the same treatment as Group II mice on day 7 plus they were treated with topical K-21, twice a week before (days 3, 6) and one week after (days 9 and 12) a single DMBA application on day 7.
All animals were weighed daily, before and during the study to compare the weight gains of animals in all three groups. The behavior (eating, drinking, etc.) was monitored on a daily basis to determine if there was any gross skin irritation or initiation of tumors. […]

[2] = system: IL-1; assay: Flow cytometry of skin cells for the inflammatory cytokine IL-1; format: in vivo, C57/BL6 mice; details: Group II, DMBA alone
Procedure: These animals received no other treatment.
Flow cytometry analyses: The skin and some associated soft tissues on the backs of all mice were excised. Representative portions of the skin and dermis were prepared for flow cytometry analysis by being divided into single cell suspensins using a 100 μm cell strainer followed by centrifugation (1500 rpm, 10 mm). Analysis of cells for detection of the inflammatory cytokine IL-1 was performed by fixing, permeabilizing, and staining of cells and running flow cyctopmetry using a FACS Calibur BD Flow Cytometer.

[3] = system: human head and neck cancer cell line (HTB41/-43); assay: Intratumoral injection of head and neck cancer tumors in nude mice; format: in vivo; details: tumors in the abdomen injected, over 10 days; K-21 at 5% by weight
Procedure: Nude mice were injected with human head and neck cancer cell line (HTB41/-43). […] The size of the sham injected tumors grew most rapidly over 10 days.

SMILES | tumor formation ([1]; single topical dose of DMBA on day 7, sacrificed day 14) | tumor diameter ([1]; single topical dose of DMBA, day 14) | IL-1 positive cells of the total number of cells [2] [%] | tumor growth [3]
Cc1c2ccccc2c(C)c2c1ccc1ccccc12 [DMBA, dimethybena(α)anthracene] | Tumors formed in all ten | about 0.5 cm | 6 | –
N.N.[Cl][Pt][Cl] [Cisplatin] | – | – | – | grew the least
